Laboratory results as given in patent US12030896B2, “PIKfyve inhibitors” (Mayo Foundation for Medical Education and Research, priority 2018, dated 2024).

Test system: U251
Test: U251 Vacuolization Assay (24h)
Type: cell-based
Conditions: Homo sapiens, U-251
Method: As used herein the term “EC50 (μM)” refers to the μM concentration of a compound that is required for 50% activity in a vacuolization assay.
Example A—U251 Vacuolization Assay Data (24h) for Compounds of Examples 8-56

Row | SMILES | EC50
1 | COCCN(CCOC)c1nc(N/N=C/c2c[nH]c3ccccc23)nc(Nc2ccc(C)cc2)n1 [Example 29, (E)-6-(2-((1H-Indol-3-yl)methylene)hydrazinyl)-N2,N2-bis(2-methoxyethyl)-N4-(p-tolyl)-1,3,5-triazine-2,4-diamine] | > 50 µM
2 | Cc1ccc(Nc2nc(N/N=C/c3ccccc3)nc(N3CCOCC3)n2)cc1 [Example 33, [4-(N′-Benzylidene-hydrazino)-6-morpholin-4-yl-[1,3,5]triazin-2-yl]-p-tolyl-amine] | ≤ 1 µM
3 | Cc1ccc(Nc2nc(N/N=C/c3c[nH]c4ccccc34)nc(N3CCCCC3)n2)cc1 [Example 15, {4-[N′-(1H-Indol-3-ylmethylene)-hydrazino]-6-piperidin-1-yl-[1,3,5]triazin-2-yl}-p-tolyl-amine] | > 50 µM
4 | Cc1ccc(Nc2nc(N/N=C/c3ccncc3)nc(N3CCOCC3)n2)cc1 [Example 32, [4-Morpholin-4-yl-6-(N′-pyridin-4-ylmethylene-hydrazino)-[1,3,5]triazin-2-yl]-p-tolyl-amine] | 1 to 10 µM
5 | Cc1ccc(Nc2nc(N/N=C\c3cccnc3)nc(N3CCOCC3)n2)cc1 [Example 23, [4-Morpholin-4-yl-6-(N′-pyridin-3-ylmethylene-hydrazino)-[1,3,5]triazin-2-yl]-p-tolyl-amine] | 1 to 10 µM
6 | Clc1ccc(Nc2nc(N/N=C/c3c[nH]c4ccccc34)nc(N3CCOCC3)n2)cc1 [Example 11, (E)-4-(2-((1h-indol-3-yl)methylene)hydrazinyl)-n-(4-chlorophenyl)-6-morpholino-1,3,5-triazin-2-amine] | ≤ 1 µM
7 | Cc1ccc(Nc2nc(N/N=C/c3c[nH]c4ccccc34)nc(N3CCN(C)CC3)n2)cc1 [Example 17, [4-[N′-(1H-Indol-3-ylmethylene)-hydrazino]-6-(4-methyl-piperazin-1-yl)-[1,3,5]triazin-2-yl]-p-tolyl-amine] | > 50 µM
8 | Cc1ccc(Nc2nc(N/N=C\c3csc4ccccc34)nc(N3CCOCC3)n2)cc1 [Example 31, [4-(N′-Benzo[b]thiophen-3-ylmethylene-hydrazino)-6-morpholin-4-yl-[1,3,5]triazin-2-yl]-p-tolyl-amine] | 1 to 10 µM
9 | N#Cc1ccc(Nc2nc(N/N=C/c3c[nH]c4ccccc34)nc(N3CCOCC3)n2)cc1 [Example 22, (E)-4-((4-(2-((1H-indol-3-yl)methylene)hydrazinyl)-6-morpholino-1,3,5-triazin-2-yl)amino)benzonitrile] | ≤ 1 µM
10 | Cc1ccc(Nc2nc(N/N=C/c3c[nH]c4ccccc34)nc(N3CCC3)n2)cc1 [Example 36, (E)-4-(2-((1H-Indol-3-yl)methylene)hydrazinyl)-6-(azetidin-1-yl)-N-(p-tolyl)-1,3,5-triazin-2-amine] | > 50 µM
11 | Cc1ccc(Nc2nc(N/N=C/c3c[nH]c4ccccc34)nc(N3C4CCC3COC4)n2)cc1 [Example 52, (E)-4-(2-((1H-Indol-3-yl)methylene)hydrazinyl)-6-(3-oxa-8-azabicyclo[3.2.1]octan-8-yl)-N-(p-tolyl)-1,3,5-triazin-2-amine] | 1 to 10 µM
12 | Cc1ccc(Nc2cc(-n3ncc4c5ccccc5[nH]c43)nc(N3CCOCC3)n2)cc1 [Example 40, [2-morpholin-4-yl-6-(8H-pyrazolo[3,4-b]indol-1-yl)-pyrimidin-4-yl]-p-tolyl-amine] | 10 to 50 µM
13 | Cc1cccc(Nc2nc(N/N=C/c3c[nH]c4ccccc34)nc(N3CCOCC3)n2)c1 [Example 9, {4-[N′-(1H-Indol-3-ylmethylene)-hydrazino]-6-morpholin-4-yl-[1,3,5]triazin-2-yl}-m-tolyl-amine] | ≤ 1 µM
14 | Brc1ccc(Nc2nc(N/N=C/c3c[nH]c4ccccc34)nc(N3CCOCC3)n2)cc1 [Example 21, (E)-4-(2-((1h-indol-3-yl)methylene)hydrazinyl)-n-(4-bromophenyl)-6-morpholino-1,3,5-triazin-2-amine] | ≤ 1 µM
15 | O=[N+]([O-])c1ccc(Nc2nc(N/N=C/c3c[nH]c4ccccc34)nc(N3CCOCC3)n2)cc1 [Example 26, (E)-4-(2-((1H-indol-3-yl)methylene)hydrazinyl)-6-morpholino-N-(4-nitrophenyl)-1,3,5-triazin-2-amine] | ≤ 1 µM
16 | Nc1ccc(Nc2nc(N/N=C/c3c[nH]c4ccccc34)nc(N3CCOCC3)n2)cc1 [Example 27, N1-(4-(2-((1h-indol-3-yl)methylene)hydrazinyl)-6-morpholino-1,3,5-triazin-2-yl)benzene-1,4-diamine] | ≤ 1 µM
17 | Cc1ccc(Nc2nc(N/N=C/c3c[nH]c4ccccc34)nc(N(CCO)CCO)n2)cc1 [Example 14, 2-((2-Hydroxy-ethyl)-{4-[N′-(1H-indol-3-ylmethylene)-hydrazino]-6-p-tolylamino-[1,3,5]triazin-2-yl}-amino)-ethanol] | > 50 µM
18 | Cc1ccc(Nc2nc(N/N=C\c3cc[nH]c3)nc(N3CCOCC3)n2)cc1 [Example 24, {4-Morpholin-4-yl-6-[N′-(1H-pyrrol-3-ylmethylene)-hydrazino]-[1,3,5]triazin-2-yl}-p-tolyl-amine] | 10 to 50 µM
19 | Cc1ccc(Nc2cc(N3CCOCC3)nc(N/N=C/c3c[nH]c4ccccc34)n2)cc1 [Example 41, {2-[N′-(1H-indol-3-ylmethylene)-hydrazino]-6-morpholin-4-yl-pyrimidin-4-yl}-p-tolyl-amine] | 1 to 10 µM
20 | Cc1ccc(Nc2cc(N/N=C/c3c[nH]c4ccccc34)nc(N3CCOCC3)n2)cc1 [Example 39] | 1 to 10 µM
21 | Cc1ccccc1Nc1nc(N/N=C/c2c[nH]c3ccccc23)nc(N2CCOCC2)n1 [Example 19, {4-[N′-(1H-Indol-3-ylmethylene)-hydrazino]-6-morpholin-4-yl-[1,3,5]triazin-2-yl}-o-tolyl-amine] | ≤ 1 µM
22 | COc1ccc(Nc2nc(N/N=C/c3c[nH]c4ccccc34)nc(N3CCOCC3)n2)cc1 [Example 12, {4-[N′-(1H-Indol-3-ylmethylene)-hydrazino]-6-morpholin-4-yl-[1,3,5]triazin-2-yl}-(4-methoxy-phenyl)-amine] | ≤ 1 µM

More lines, now with the values ahead:

Row | EC50 | SMILES
23 | 1 to 10 µM | Cc1ccc(Nc2nc(N/N=C/c3cc4ccccc4[nH]3)nc(N3CCOCC3)n2)cc1 [Example 44, {4-[N′-(1H-Indol-2-ylmethylene)-hydrazino]-6-morpholin-4-yl-[1,3,5]triazin-2-yl}-p-tolyl-amine]
24 | ≤ 1 µM | C(=N\Nc1nc(Nc2cccc3ccccc23)nc(N2CCOCC2)n1)/c1c[nH]c2ccccc12 [Example 55, (E)-4-(2-((1H-indol-3-yl)methylene)hydrazinyl)-6-morpholino-N-(naphthalen-1-yl)-1,3,5-triazin-2-amine]
25 | ≤ 1 µM | CS(=O)(=O)Nc1ccc(Nc2nc(N/N=C/c3c[nH]c4ccccc34)nc(N3CCOCC3)n2)cc1 [Example 46, (E)-N-(4-((4-(2-((1H-indol-3-yl)methylene)hydrazinyl)-6-morpholino-1,3,5-triazin-2-yl)amino)phenyl)methanesulfonamide]
26 | > 50 µM | Cc1[nH]c2ccccc2c1/C=N/Nc1nc(Nc2ccc([N+](=O)[O-])cc2)nc(N2CCCCCC2)n1 [Example 56, (E)-4-(azepan-1-yl)-6-(2-((2-methyl-1H-indol-3-yl)methylene)hydrazinyl)-N-(4-nitrophenyl)-1,3,5-triazin-2-amine]
27 | 1 to 10 µM | COCCN(c1nc(N/N=C/c2c[nH]c3ccccc23)nc(Nc2ccc(C)cc2)n1)C(C)C [Example 51, (E)-6-(2-((1H-Indol-3-yl)methylene)hydrazinyl)-N2-isopropyl-N2-(2-methoxyethyl)-N4-(p-tolyl)-1,3,5-triazine-2,4-diamine]
28 | ≤ 1 µM | Clc1ccccc1Nc1nc(N/N=C/c2c[nH]c3ccccc23)nc(N2CCOCC2)n1 [Example 42, (2-Chloro-phenyl)-{4-[N′-(1H-indol-3-ylmethylene)-hydrazino]-6-morpholin-4-yl-[1,3,5]triazin-2-yl}-amine]
29 | > 50 µM | Cc1ccc(Nc2nc(N/N=C/c3c[nH]c4ccccc34)nc(N3CCOc4ccccc43)n2)cc1 [Example 48, (E)-4-(2-((1H-Indol-3-yl)methylene)hydrazinyl)-6-(2H-benzo[b][1,4]oxazin-4(3H)-yl)-N-(p-tolyl)-1,3,5-triazin-2-amine]
30 | > 50 µM | Cc1ccc(Nc2nc(N/N=C\c3coc4ccccc34)nc(N3CCOCC3)n2)cc1 [Example 53, 4-(2-(benzofuran-3-ylmethylene)hydrazinyl)-6-morpholino-N-(p-tolyl)-1,3,5-triazin-2-amine]
31 | > 50 µM | COC1CCN(c2nc(N/N=C/c3c[nH]c4ccccc34)nc(Nc3ccc(C)cc3)n2)CC1 [Example 49, (E)-4-(2-((1H-Indol-3-yl)methylene)hydrazinyl)-6-(4-methoxypiperidin-1-yl)-N-(p-tolyl)-1,3,5-triazin-2-amine]
32 | ≤ 1 µM | Cc1ccc(Nc2nc(N/N=C/c3c[nH]c4ccccc34)nc(N3CCOCC3)n2)nc1 [Example 45, {4-[N′-(1H-Indol-3-ylmethylene)-hydrazino]-6-morpholin-4-yl-[1,3,5]triazin-2-yl}-(5-methyl-pyridin-2-yl)-amine]
33 | 1 to 10 µM | Cc1ccc(Nc2nc(N/N=C/c3ccccn3)nc(N3CCOCC3)n2)cc1 [Example 43, [4-Morpholin-4-yl-6-(N′-pyridin-2-ylmethylene-hydrazino)-[1,3,5]triazin-2-yl]-p-tolyl-amine]
34 | > 50 µM | Cc1ccc(Nc2nc(N/N=C/c3c[nH]c4ccccc34)nc(N3CCC(O)CC3)n2)cc1 [Example 37, (E)-1-(4-(2-((1H-Indol-3-yl)methylene)hydrazinyl)-6-(p-tolylamino)-1,3,5-triazin-2-yl)piperidin-4-ol]
35 | > 50 µM | Cc1ccc(Nc2nc(N/N=C/c3c[nH]c4ccccc34)nc(N3CCSCC3)n2)cc1 [Example 38, (E)-4-(2-((1H-Indol-3-yl)methylene)hydrazinyl)-6-thiomorpholino-N-(p-tolyl)-1,3,5-triazin-2-amine]
36 | ≤ 1 µM | Cc1ccc(Nc2nc(N/N=C/c3c[nH]c4ccccc34)nc(N3CCOCC3C)n2)cc1 (stereo not drawn) [Example 50, (E)-4-(2-((1H-Indol-3-yl)methylene)hydrazinyl)-6-(3-methylmorpholino)-N-(p-tolyl)-1,3,5-triazin-2-amine]
